# Molecular target: Axl (Homo sapiens (Human), UniProt P30530)
# Experiment: Phospho-Akt in-cell Western assay (Axl-antibody cross-linking stimulation)
# Type: cell-based
# Settings: inhibition of Axl activity, Hela cells, phospho-Akt readout; Table 5, formula (Ia3)
# Method in brief: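 HeLa cells on poly-L-lysine, starved 24 hrs with Axl/Fc, pre-treated with compound 1 hr at 37° C., then stimulated 5 min with Axl primary/secondary antibody cluster. Fixed cells probed for phospho-Akt by chemiluminescent in-cell Western; signal normalized to crystal violet cell number.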
# Chain of Axl (P30530 26-894): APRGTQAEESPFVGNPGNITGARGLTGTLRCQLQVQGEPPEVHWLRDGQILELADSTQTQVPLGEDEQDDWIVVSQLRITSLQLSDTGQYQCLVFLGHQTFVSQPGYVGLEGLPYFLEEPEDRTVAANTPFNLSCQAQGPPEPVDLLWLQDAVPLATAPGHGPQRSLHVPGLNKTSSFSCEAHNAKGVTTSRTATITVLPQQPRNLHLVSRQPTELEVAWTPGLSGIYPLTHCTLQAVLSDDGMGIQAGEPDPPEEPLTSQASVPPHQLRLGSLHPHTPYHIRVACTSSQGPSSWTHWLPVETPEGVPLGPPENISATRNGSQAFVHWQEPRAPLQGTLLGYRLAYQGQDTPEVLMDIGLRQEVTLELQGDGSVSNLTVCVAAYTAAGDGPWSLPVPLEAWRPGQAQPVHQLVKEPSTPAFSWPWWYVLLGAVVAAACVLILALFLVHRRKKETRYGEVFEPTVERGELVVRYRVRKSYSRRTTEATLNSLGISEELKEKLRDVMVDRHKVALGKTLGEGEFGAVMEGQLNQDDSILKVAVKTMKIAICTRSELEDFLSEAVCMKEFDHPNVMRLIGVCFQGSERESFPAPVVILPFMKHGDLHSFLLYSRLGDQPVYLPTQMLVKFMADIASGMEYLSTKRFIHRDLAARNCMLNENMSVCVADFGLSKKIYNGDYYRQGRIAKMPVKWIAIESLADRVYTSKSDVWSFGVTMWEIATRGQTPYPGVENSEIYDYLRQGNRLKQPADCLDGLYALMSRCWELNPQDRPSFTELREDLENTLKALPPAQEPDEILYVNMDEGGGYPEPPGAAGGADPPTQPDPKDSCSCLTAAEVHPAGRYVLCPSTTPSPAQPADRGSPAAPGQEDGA
row,SMILES,IC50
1,"CNC(=O)c1ccc(Nc2nc(NC)n(-c3ccccc3)n2)cc1 [Compound 246, 1-phenyl-N^3-(4-(methylaminocarbonyl)-phenyl)-N^5-methyl-1H-1,2,4-triazole-3,5-diamine]",> 20000 nM
2,"CCOC(=O)c1ccc(Nc2nc(NC)n(-c3ccccc3)n2)cc1 [Compound 247, 1-phenyl-N^3-(4-(ethyloxocarbonyl)phenyl)-N^5-methyl-1H-1,2,4-triazole-3,5-diamine]",> 20000 nM
3,"COc1ccc2nc(Cl)c(-n3nc(Nc4ccc(N5CCC(N6CCCC6)CC5)c(F)c4)nc3N)nc2c1 [Compound 256, 1-(2-chloro-6-methoxy-quinoxalin-3-yl)-N^3-(3-fluoro-4-(4-(pyrrolidin-1-yl)piperidin-1-yl)phenyl)-1H-1,2,4-triazole-3,5-diamine]",< 1000 nM

# Same assay, conditions: inhibition of Axl activity, phospho-Akt in-cell Western assay
row,SMILES,IC50
1,"Cc1cc(Nc2nc(N)n(-c3nnc(C)c4ccsc34)n2)ccc1N1CCN([C@H]2C[C@@H]3CC[C@H]2C3)CC1 [Compound 232, 1-(4-methylthieno[3,2-d]pyridazin-7-yl)-N^3-(3-methyl-4-(4-((1S,2S,4R)-bicyclo[2.2.1]heptan-2-yl)piperazin-1-yl)phenyl)-1H-1,2,4-triazole-3,5-diamine]",< 1000 nM
2,"Cc1cccc(-c2nc(-n3nc(Nc4ccc(N5CCN(C6CC7CCC6C7)CC5)cc4)nc3N)c3scc(C)c3n2)c1 (centres unmarked) [Compound 233, 1-(7-methyl-2-m-tolylthieno[3,2-d]pyrimidin-4-yl)-N^3-(4-(4-(bicyclo[2.2.1]heptan-2-yl)piperazin-1-yl)phenyl)-1H-1,2,4-triazole-3,5-diamine]",> 20000 nM
3,"Cc1csc2c(-n3nc(Nc4ccc(N5CCN(C6CC7CCC6C7)CC5)cc4)nc3N)nc(-c3cccc(C#N)c3)nc12 (centres unmarked) [Compound 234, 1-(7-methyl-2-(3-cyanophenyl)thieno[3,2-d]pyrimidin-4-yl)-N^3-(4-(4-(bicyclo[2.2.1]heptan-2-yl)piperazin-1-yl)phenyl)-1H-1,2,4-triazole-3,5-diamine]",< 1000 nM
4,"Cc1csc2c(-n3nc(Nc4ccc(N5CCN([C@H]6CC7CCC6C7)CC5)cc4)nc3N)nc(-c3ccccc3Cl)nc12 (stereo partly drawn) [Compound 235, 1-(7-methyl-2-(2-chlorophenyl)thieno[3,2-d]pyrimidin-4-yl)-N^3-(4-(4-((2S)-bicyclo[2.2.1]heptan-2-yl)piperazin-1-yl)phenyl)-1H-1,2,4-triazole-3,5-diamine]",1000 to 10000 nM
5,"Cc1csc2c(-n3nc(Nc4ccc(N5CCN([C@H]6CC7CCC6C7)CC5)cc4)nc3N)nc(-c3ccc4c(c3)OCO4)nc12 (stereo partly drawn) [Compound 236, 1-(7-methyl-2-benzo[d][1,3]dioxole-5-ylthieno[3,2-d]pyrimidin-4-yl)-N^3-(4-(4-((2S)-bicyclo[2.2.1]heptan-2-yl)piperazin-1-yl)phenyl)-1H-1,2,4-triazole-3,5-diamine]",> 20000 nM
6,"Cc1csc2c(-n3nc(Nc4ccc(N5CCN([C@H]6CC7CCC6C7)CC5)cc4)nc3N)nc(-c3ccncc3)nc12 (stereo partly drawn) [Compound 237, 1-(7-methyl-2-pyridin-4-ylthieno[3,2-d]pyrimidin-4-yl)-N^3-(4-(4-((2S)-bicyclo[2.2.1]heptan-2-yl)piperazin-1-yl)phenyl)-1H-1,2,4-triazole-3,5-diamine]",< 1000 nM
7,"Cc1csc2c(-n3nc(Nc4ccc(N5CCN([C@H]6CC7CCC6C7)CC5)cc4)nc3N)nc(-c3cccc(NS(C)(=O)=O)c3)nc12 (stereo partly drawn) [Compound 238, 1-(7-methyl-2-(3-(methylsulfonyl)aminophenyl)thieno[3,2-d]pyrimidin-4-yl)-N^3-(4-(4-((2S)-bicyclo[2.2.1]heptan-2-yl)piperazin-1-yl)phenyl)-1H-1,2,4-triazole-3,5-diamine]",1000 to 10000 nM
8,"Cc1csc2c(-n3nc(Nc4ccc(N5CCN([C@H]6CC7CCC6C7)CC5)cc4)nc3N)nc(C=CCN3CCCC3)nc12 (stereo partly drawn) [Compound 239, 1-(7-methyl-2-(3-(pyrrolidin-1-yl)prop-1-enyl)thieno[3,2-d]pyrimidin-4-yl)-N^3-(4-(4-((2S)-bicyclo[2.2.1]heptan-2-yl)piperazin-1-yl)phenyl)-1H-1,2,4-triazole-3,5-diamine]",1000 to 10000 nM
9,"Cc1csc2c(-n3nc(Nc4ccc(N5CCN([C@H]6CC7CCC6C7)CC5)cc4)nc3N)nc(C=CCN3CCN(C)CC3)nc12 (stereo partly drawn) [Compound 240, 1-(7-methyl-2-(3-(4-methylpiperazin-1-yl)prop-1-enyl)thieno[3,2-d]pyrimidin-4-yl)-N^3-(4-(4-((2S)-bicyclo[2.2.1]heptan-2-yl)piperazin-1-yl)phenyl)-1H-1,2,4-triazole-3,5-diamine]",1000 to 10000 nM
10,"Cc1csc2c(-n3nc(Nc4ccc(N5CCN([C@H]6CC7CCC6C7)CC5)cc4)nc3N)nc(/C=C/CN3CCOCC3)nc12 (stereo partly drawn) [Compound 241, 1-((E)-7-methyl-2-(3-(morpholin-4-yl)prop-1-enyl)thieno[3,2-d]pyrimidin-4-yl)-N^3-(4-(4-((2S)-bicyclo[2.2.1]heptan-2-yl)piperazin-1-yl)phenyl)-1H-1,2,4-triazole-3,5-diamine]",1000 to 10000 nM
11,"Cc1csc2c(-n3nc(Nc4ccc(N5CCN([C@H]6C[C@@H]7CC[C@H]6C7)CC5)c(Cl)c4)nc3N)ncnc12 [Compound 242, 1-(7-methylthieno[3,2-d]pyrimidin-4-yl)-N^3-(3-chloro-4-(4-((1S,2S,4R)-bicyclo[2.2.1]heptan-2-yl)piperazin-1-yl)phenyl)-1H-1,2,4-triazole-3,5-diamine]",< 1000 nM
12,"Nc1nc(Nc2ccc(N3CCN([C@H]4C[C@@H]5CC[C@H]4C5)CC3)c(Cl)c2)nn1-c1ncnc2ccsc12 [Compound 243, 1-thieno[3,2-d]pyrimidin-4-yl-N^3-(3-chloro-4-(4-((1S,2S,4R)-bicyclo[2.2.1]heptan-2-yl)piperazin-1-yl)phenyl)-1H-1,2,4-triazole-3,5-diamine]",< 1000 nM
13,"Nc1nc(Nc2ccc(N3CCN([C@H]4C[C@@H]5CC[C@H]4C5)CC3)c(Cl)c2)nn1-c1ncnc2sccc12 [Compound 244, 1-thieno[2,3-d]pyrimidin-4-yl-N^3-(3-chloro-4-(4-((1S,2S,4R)-bicyclo[2.2.1]heptan-2-yl)piperazin-1-yl)phenyl)-1H-1,2,4-triazole-3,5-diamine]",< 1000 nM
14,"Cc1csc2c(-n3nc(Nc4ccc(N5CCN([C@H]6C[C@@H]7CC[C@H]6C7)CC5)c(F)c4)nc3N)ncnc12 [Compound 245, 1-(7-methylthieno[3,2-d]pyrimidin-4-yl)-N^3-(3-fluoro-4-(4-((1S,2S,4R)-bicyclo[2.2.1]heptan-2-yl)piperazin-1-yl)phenyl)-1H-1,2,4-triazole-3,5-diamine]",< 1000 nM
15,"Cc1csc2c(-n3nc(Nc4ccc(N5CCN(C6CC7CCC6C7)[C@H](C)C5)c(F)c4)nc3N)ncnc12 (stereo partly drawn) [Compound 248, 1-(7-methylthieno[3,2-d]pyrimidin-4-yl)-N^3-(3-fluoro-4-(3-(R)-methyl-4-(bicyclo[2.2.1]heptan-2-yl)piperazin-1-yl)phenyl)-1H-1,2,4-triazole-3,5-diamine]",< 1000 nM
16,"Cc1csc2c(-n3nc(Nc4ccc(N5CCN(C6CC7CCC6C7)[C@@H](C)C5)c(F)c4)nc3N)ncnc12 (stereo partly drawn) [Compound 249, 1-(7-methylthieno[3,2-d]pyrimidin-4-yl)-N^3-(3-fluoro-4-(3-(S)-methyl-4-(bicyclo[2.2.1]heptan-2-yl)piperazin-1-yl)phenyl)-1H-1,2,4-triazole-3,5-diamine]",< 1000 nM
17,"Cc1csc2c(-n3nc(Nc4ccc(N5CCN([C@H]6C[C@@H]7CC[C@H]6C7)[C@H](C)C5)c(F)c4)nc3N)ncnc12 [Compound 250, 1-(7-methylthieno[3,2-d]pyrimidin-4-yl)-N^3-(3-fluoro-4-(3-(R)-methyl-4-((1S,2S,4R)-bicyclo[2.2.1]heptan-2-yl)piperazin-1-yl)phenyl)-1H-1,2,4-triazole-3,5-diamine]",< 1000 nM
18,"Cc1csc2c(-n3nc(Nc4ccc(N5CCN([C@H]6C[C@@H]7CC[C@H]6C7)[C@@H](C)C5)c(F)c4)nc3N)ncnc12 [Compound 251, 1-(7-methylthieno[3,2-d]pyrimidin-4-yl)-N^3-(3-fluoro-4-(3-(S)-methyl-4-((1S,2S,4R)-bicyclo[2.2.1]heptan-2-yl)piperazin-1-yl)phenyl)-1H-1,2,4-triazole-3,5-diamine]",< 1000 nM
19,"Cc1cc(Nc2nc(N)n(-c3ncnc4c(C)csc34)n2)ccc1N1CCN([C@H]2C[C@@H]3CC[C@H]2C3)CC1 [Compound 252, 1-(7-methylthieno[3,2-d]pyrimidin-4-yl)-N^3-(3-methyl-4-(4-((1S,2S,4R)-bicyclo[2.2.1]heptan-2-yl)piperazin-1-yl)phenyl)-1H-1,2,4-triazole-3,5-diamine]",< 1000 nM
20,"Cc1cc(Nc2nc(N)n(-c3ncnc4c(C)csc34)n2)ccc1N1CCN([C@H]2C[C@@H]3CC[C@H]2C3)[C@@H](C)C1 [Compound 253, 1-(7-methylthieno[3,2-d]pyrimidin-4-yl)-N^3-(3-methyl-4-(3-(S)-methyl-4-((1S,2S,4R)-bicyclo[2.2.1]heptan-2-yl)piperazin-1-yl)phenyl)-1H-1,2,4-triazole-3,5-diamine]",< 1000 nM
21,"Cc1cc(Nc2nc(N)n(-c3ncnc4c(C)csc34)n2)ccc1N1CCN([C@H]2C[C@@H]3CC[C@H]2C3)[C@H](C)C1 [Compound 254, 1-(7-methylthieno[3,2-d]pyrimidin-4-yl)-N^3-(3-methyl-4-(3-(R)-methyl-4-((1S,2S,4R)-bicyclo[2.2.1]heptan-2-yl)piperazin-1-yl)phenyl)-1H-1,2,4-triazole-3,5-diamine]",< 1000 nM
22,"C[C@H]1CN(c2ccc(Nc3nc(N)n(-c4ncnc5ccsc45)n3)cc2F)CCN1[C@H]1C[C@@H]2CC[C@H]1C2 [Compound 255, 1-thieno[3,2-d]pyrimidin-4-yl-N^3-(3-fluoro-4-(3-(S)-methyl-4-((1S,2S,4R)-bicyclo[2.2.1]heptan-2-yl)piperazin-1-yl)phenyl)-1H-1,2,4-triazole-3,5-diamine]",< 1000 nM
23,Cc1csc2c(-n3nc(Nc4ccc(N5CCN([C@H]6C[C@@H]7CC[C@H]6C7)[C@@H](C)C5)c(F)c4)nc3N)nc(Cl)nc12 [Compound 257],< 1000 nM

# From patent publication US10166216B2 (Rigel Pharmaceuticals, Inc., priority 2006, dated 2019)
